Data reported in ChEMBL document CHEMBL4665763, “Molecular Networking-Guided Discovery and Characterization of Stechlisins, a Group of Cyclic Lipopeptides from a Pseudomonas sp” (2020).
Values after ≈ are worked out from the molar mass of the structure shown. Active and inactive are the calls of the source. The rule behind the calls is not given here.

Tested on: Moraxella catarrhalis
Assay: Antimicrobial activity against Moraxella catarrhalis FH6810 after 18 hrs by micro broth dilution assay
Type: functional

SMILES | MIC [µg/mL] | Activity
CCCCCCC[C@H](O)CC(=O)N[C@H](CC(C)C)C(=O)N[C@H](CC(=O)O)C(=O)N[C@H]1C(=O)N[C@H](CC(C)C)C(=O)N[C@H](CC(C)C)C(=O)N[C@H](CO)C(=O)N[C@@H](CC(C)C)C(=O)N[C@H](CCC(N)=O)C(=O)N[C@@H](CC(C)C)C(=O)N[C@@H](C(C)C)C(=O)N[C@@H](CCC(=O)O)C(=O)O[C@@H]1C | > 128 | –
CCCCCCC[C@H](O)CC(=O)N[C@H](CC(C)C)C(=O)N[C@H](CC(=O)O)C(=O)N[C@H]1C(=O)N[C@H](CC(C)C)C(=O)N[C@H](CC(C)C)C(=O)N[C@H](CO)C(=O)N[C@@H](CC(C)C)C(=O)N[C@H](CCC(N)=O)C(=O)N[C@@H](CC(C)C)C(=O)N[C@@H]([C@@H](C)CC)C(=O)N[C@@H](CCC(=O)O)C(=O)O[C@@H]1C | 32 (≈ 22.7 µM) | –
CCCCCCC[C@H](O)CC(=O)N[C@H](CC(C)C)C(=O)N[C@H](CC(=O)O)C(=O)N[C@H]1C(=O)N[C@H](CC(C)C)C(=O)N[C@H](CC(C)C)C(=O)N[C@H](CO)C(=O)N[C@@H](CC(C)C)C(=O)N[C@H](CCC(N)=O)C(=O)N[C@@H](CC(C)C)C(=O)N[C@@H](CC(C)C)C(=O)N[C@@H](CCC(=O)O)C(=O)O[C@@H]1C | > 128 | –
CCCCCCCCC[C@H](O)CC(=O)N[C@H](CC(C)C)C(=O)N[C@H](CC(=O)O)C(=O)N[C@H]1C(=O)N[C@H](CC(C)C)C(=O)N[C@H](CC(C)C)C(=O)N[C@H](CO)C(=O)N[C@@H](CC(C)C)C(=O)N[C@H](CCC(N)=O)C(=O)N[C@@H](CC(C)C)C(=O)N[C@@H]([C@@H](C)CC)C(=O)N[C@@H](CCC(=O)O)C(=O)O[C@@H]1C | 4 (≈ 2.78 µM) | –
CCCCC[C@H](O)CC(=O)N[C@H](CC(C)C)C(=O)N[C@H](CC(=O)O)C(=O)N[C@H]1C(=O)N[C@H](CC(C)C)C(=O)N[C@H](CC(C)C)C(=O)N[C@H](CO)C(=O)N[C@@H](CC(C)C)C(=O)N[C@H](CCC(N)=O)C(=O)N[C@@H](CC(C)C)C(=O)N[C@@H]([C@@H](C)CC)C(=O)N[C@@H](CCC(=O)O)C(=O)O[C@@H]1C | – | inactive
CCCCCCC[C@H](O)CC(=O)N[C@H](CC(C)C)C(=O)N[C@H](CCC(=O)O)C(=O)N[C@H]1C(=O)N[C@H](CC(C)C)C(=O)N[C@H](CC(C)C)C(=O)N[C@H](CO)C(=O)N[C@@H](CC(C)C)C(=O)N[C@H](CCC(N)=O)C(=O)N[C@@H](CC(C)C)C(=O)N[C@@H]([C@@H](C)CC)C(=O)N[C@@H](CCC(=O)O)C(=O)O[C@@H]1C | > 128 | –
CCCCC[C@H](O)CC(=O)N[C@H](CC(C)C)C(=O)N[C@H](CCC(=O)O)C(=O)N[C@H]1C(=O)N[C@H](CC(C)C)C(=O)N[C@H](CC(C)C)C(=O)N[C@H](CO)C(=O)N[C@@H](CC(C)C)C(=O)N[C@H](CCC(N)=O)C(=O)N[C@@H](CC(C)C)C(=O)N[C@@H](CC(C)C)C(=O)N[C@@H](CCC(=O)O)C(=O)O[C@@H]1C | > 128 | –
